These results are taken from patent US20090298820A1, “3-SUBSTITUTED-1H-PYRROLO[2,3-B]PYRIDINE AND 3-SUBSTITUTED-1H-PYRROLO[3,2-B]PYRIDINE COMPOUNDS, THEIR USE AS MTOR KINASE AND PI3 KINASE INHIBITORS, AND THEIR SYNTHESES” (Wyeth, priority 2008, published 2009).

Like-named read-outs stand apart in the source and are kept apart here. Some results are limits rather than exact numbers.

Holding throughout (format): biochemical
Test [1] concerns the target PI3Kα (Homo sapiens, UniProt P42336). In words: PI3K-alpha fluorescence polarization assay. The note with it: read-out: PI3Kα Median IC50. (In general: Polarisation of emitted light reports the rotation of a fluorescent probe.)
Test [2] has as its target PI3Kγ (Homo sapiens, UniProt P48736). Briefly: PI3K-gamma fluorescence polarization assay. The note with it: read-out: PI3Kγ Median IC50.
The target in test [3] is mTOR (Homo sapiens, UniProt P42345). Briefly: mTOR enzyme assay (DELFIA format, His6-S6K substrate).
[4] abbreviates: read-out: mTOR Kinase Median IC50.

Chain of PI3Kγ (P48736 whole entry, species assumed): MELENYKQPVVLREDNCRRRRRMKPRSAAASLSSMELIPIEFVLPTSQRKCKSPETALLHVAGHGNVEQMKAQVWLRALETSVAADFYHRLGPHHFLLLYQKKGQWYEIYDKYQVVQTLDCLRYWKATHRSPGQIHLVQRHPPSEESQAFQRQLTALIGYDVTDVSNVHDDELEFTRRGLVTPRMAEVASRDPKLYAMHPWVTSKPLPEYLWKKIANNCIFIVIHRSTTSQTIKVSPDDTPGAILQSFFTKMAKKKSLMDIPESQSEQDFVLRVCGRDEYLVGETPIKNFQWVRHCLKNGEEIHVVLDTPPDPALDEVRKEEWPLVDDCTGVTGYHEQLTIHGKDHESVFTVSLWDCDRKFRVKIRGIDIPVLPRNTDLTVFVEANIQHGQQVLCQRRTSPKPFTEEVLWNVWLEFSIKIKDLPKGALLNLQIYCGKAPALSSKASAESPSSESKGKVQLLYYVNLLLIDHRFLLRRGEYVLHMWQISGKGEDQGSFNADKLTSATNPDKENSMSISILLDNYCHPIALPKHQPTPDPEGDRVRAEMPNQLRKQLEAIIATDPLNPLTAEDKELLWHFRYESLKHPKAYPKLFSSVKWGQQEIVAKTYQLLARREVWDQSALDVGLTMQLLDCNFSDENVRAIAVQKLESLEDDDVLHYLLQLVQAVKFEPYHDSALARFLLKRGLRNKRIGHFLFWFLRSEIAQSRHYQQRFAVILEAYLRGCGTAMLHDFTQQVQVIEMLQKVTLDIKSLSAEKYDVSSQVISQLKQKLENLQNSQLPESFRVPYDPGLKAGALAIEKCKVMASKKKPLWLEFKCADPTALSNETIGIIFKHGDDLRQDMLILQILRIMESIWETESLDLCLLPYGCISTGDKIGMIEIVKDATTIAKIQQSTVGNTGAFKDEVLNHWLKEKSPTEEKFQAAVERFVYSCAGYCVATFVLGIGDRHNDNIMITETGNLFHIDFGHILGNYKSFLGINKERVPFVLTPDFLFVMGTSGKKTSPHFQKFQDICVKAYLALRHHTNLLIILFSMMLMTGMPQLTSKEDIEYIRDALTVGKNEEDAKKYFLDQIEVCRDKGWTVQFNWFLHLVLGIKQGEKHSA
Chain of PI3Kα (P42336 whole entry, species assumed): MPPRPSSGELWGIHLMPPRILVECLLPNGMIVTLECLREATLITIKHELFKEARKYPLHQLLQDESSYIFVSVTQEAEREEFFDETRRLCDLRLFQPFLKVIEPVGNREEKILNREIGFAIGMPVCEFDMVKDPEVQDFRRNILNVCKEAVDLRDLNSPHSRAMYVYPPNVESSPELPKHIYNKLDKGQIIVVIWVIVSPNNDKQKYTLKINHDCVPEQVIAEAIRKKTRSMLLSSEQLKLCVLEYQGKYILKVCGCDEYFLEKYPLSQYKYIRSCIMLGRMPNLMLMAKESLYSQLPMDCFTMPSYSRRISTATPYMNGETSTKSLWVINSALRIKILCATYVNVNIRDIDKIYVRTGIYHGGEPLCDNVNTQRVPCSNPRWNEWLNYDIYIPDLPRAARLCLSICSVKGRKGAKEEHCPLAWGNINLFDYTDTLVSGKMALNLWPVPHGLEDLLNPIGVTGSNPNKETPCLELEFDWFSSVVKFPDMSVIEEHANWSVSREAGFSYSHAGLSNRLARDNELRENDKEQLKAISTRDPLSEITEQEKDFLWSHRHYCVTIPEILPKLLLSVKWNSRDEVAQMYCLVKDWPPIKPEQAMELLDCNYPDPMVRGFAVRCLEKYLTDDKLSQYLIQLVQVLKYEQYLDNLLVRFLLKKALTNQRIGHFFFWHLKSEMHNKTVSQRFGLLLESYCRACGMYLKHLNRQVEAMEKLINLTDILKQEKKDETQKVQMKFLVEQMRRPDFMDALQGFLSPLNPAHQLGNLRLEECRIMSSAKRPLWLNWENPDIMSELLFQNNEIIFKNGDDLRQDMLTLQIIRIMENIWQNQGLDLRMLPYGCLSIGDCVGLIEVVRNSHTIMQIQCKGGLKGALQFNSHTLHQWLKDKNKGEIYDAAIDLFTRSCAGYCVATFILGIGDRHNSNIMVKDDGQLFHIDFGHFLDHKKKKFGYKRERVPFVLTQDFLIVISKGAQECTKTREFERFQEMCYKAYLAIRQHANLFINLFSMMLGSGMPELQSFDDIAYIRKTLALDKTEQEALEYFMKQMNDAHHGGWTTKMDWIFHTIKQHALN
Chain of PI3Kα (P27986 whole entry partner, species assumed): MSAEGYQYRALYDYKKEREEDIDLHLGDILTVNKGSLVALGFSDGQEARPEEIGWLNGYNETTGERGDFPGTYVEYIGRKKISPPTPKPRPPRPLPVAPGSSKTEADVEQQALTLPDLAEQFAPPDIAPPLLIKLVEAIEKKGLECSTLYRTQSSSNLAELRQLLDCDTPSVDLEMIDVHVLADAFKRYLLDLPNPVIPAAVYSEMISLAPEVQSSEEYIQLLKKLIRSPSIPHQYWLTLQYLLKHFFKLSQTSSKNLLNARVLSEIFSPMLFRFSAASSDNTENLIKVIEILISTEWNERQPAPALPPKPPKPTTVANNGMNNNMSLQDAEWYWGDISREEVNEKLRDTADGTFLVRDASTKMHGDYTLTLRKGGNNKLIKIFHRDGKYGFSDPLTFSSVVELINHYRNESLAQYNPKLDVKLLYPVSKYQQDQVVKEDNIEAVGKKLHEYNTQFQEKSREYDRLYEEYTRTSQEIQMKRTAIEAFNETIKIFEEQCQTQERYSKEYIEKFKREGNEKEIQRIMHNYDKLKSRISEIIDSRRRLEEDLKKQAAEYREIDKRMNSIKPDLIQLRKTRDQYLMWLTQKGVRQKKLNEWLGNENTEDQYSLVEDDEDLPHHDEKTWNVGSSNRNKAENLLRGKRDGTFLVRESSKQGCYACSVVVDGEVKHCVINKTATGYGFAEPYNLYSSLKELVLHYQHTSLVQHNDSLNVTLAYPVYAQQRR

Consider `COc1ccnc(CN(C)C(=O)C2CCN(c3ccnc4c3c(/C=C3\Oc5ccc(NC(=O)Nc6cccnc6)cc5C3=O)cn4C)CC2)c1` [Compound 224, N-[(4-methoxypyridin-2-yl)methyl]-N-methyl-1-{1-methyl-3-[(Z)-{3-oxo-5-[(pyridin-3-ylcarbamoyl)amino]-1-benzofuran-2(3H)-ylidene}methyl]-1H-pyrrolo[2,3-b]pyridin-4-yl}piperidine-4-carboxamide], for which the IC50 in test [1] was 2370 nM; in test [2] it was 1420 nM; in test [3] (setting [4]), 23.5 nM.
On to `Cc1cccc(CN(C)C(=O)C2CCN(c3ccnc4c3c(/C=C3\Oc5ccc(NC(=O)Nc6cccnc6)cc5C3=O)cn4C)CC2)n1` [Compound 225, N-methyl-1-{1-methyl-3-[(Z)-{3-oxo-5-[(pyridin-3-ylcarbamoyl)amino]-1-benzofuran-2(3H)-ylidene}methyl]-1H-pyrrolo[2,3-b]pyridin-4-yl}-N-[(6-methylpyridin-2-yl)methyl]piperidine-4-carboxamide], for which the IC50 in test [1] came to 2320 nM; in test [2], 1920 nM; in test [3], 49 nM.
Turning to `C#CCN(C)C(=O)C1CCN(c2ccnc3c2c(/C=C2\Oc4ccc(NC(=O)Nc5cccnc5)cc4C2=O)cn3C)CC1` [Compound 226, N-methyl-1-{1-methyl-3-[(Z)-{3-oxo-5-[(pyridin-3-ylcarbamoyl)amino]-1-benzofuran-2(3H)-ylidene}methyl]-1H-pyrrolo[2,3-b]pyridin-4-yl}-N-prop-2-yn-1-ylpiperidine-4-carboxamide], the IC50 in test [1] is 921 nM; in test [2], 1140 nM; in test [3] (setting [4]) it was 22.5 nM.
On to `CN(C(=O)C1CCN(c2ccnc3c2c(/C=C2\Oc4ccc(NC(=O)Nc5cccnc5)cc4C2=O)cn3C)CC1)C1CCCC1` [Compound 227, N-cyclopentyl-N-methyl-1-{1-methyl-3-[(Z)-{3-oxo-5-[(pyridin-3-ylcarbamoyl)amino]-1-benzofuran-2(3H)-ylidene}methyl]-1H-pyrrolo[2,3-b]pyridin-4-yl}piperidine-4-carboxamide], for which the values for the half-maximal inhibitory concentration (IC50) in test [1], in test [2] and in test [3] (setting [4]) were 2720 nM, 1110 nM and 165 nM, respectively.
For `CN1CCN(NC(=O)Nc2ccc3c(c2)C(=O)/C(=C/c2cn(C)c4nccc(N5CCC(C(=O)N(C)C)CC5)c24)O3)CC1` [Compound 228, N,N-dimethyl-1-(1-methyl-3-{(Z)-[5-{[(4-methylpiperazin-1-yl)carbamoyl]amino}-3-oxo-1-benzofuran-2(3H)-ylidene]methyl}-1H-pyrrolo[2,3-b]pyridin-4-yl)piperidine-4-carboxamide] the same measures were 415 nM, 2750 nM and 170 nM.
For `CN1CCN(c2ccc(NC(=O)Nc3ccc4c(c3)C(=O)/C(=C/c3cn(C)c5nccc(N6CC7CCC(C6)O7)c35)O4)cc2)CC1` [Compound 229, 1-[(2Z)-2-{[1-methyl-4-(8-oxa-3-azabicyclo[3.2.1]oct-3-yl)-1H-pyrrolo[2,3-b]pyridin-3-yl]methylidene}-3-oxo-2,3-dihydro-1-benzofuran-5-yl]-3-[4-(4-methylpiperazin-1-yl)phenyl]urea] the same measures were 2300 nM, 6670 nM and 280 nM.
For `CN1CCN(c2ccc(NC(=O)Nc3ccc4c(c3)C(=O)/C(=C/c3cn(C)c5nccc(N6CCC(C(=O)N(C)C)CC6)c35)O4)cn2)CC1` [Compound 230, N,N-dimethyl-1-(1-methyl-3-{(Z)-[5-({[6-(4-methylpiperazin-1-yl)pyridin-3-yl]carbamoyl}amino)-3-oxo-1-benzofuran-2(3H)-ylidene]methyl}-1H-pyrrolo[2,3-b]pyridin-4-yl)piperidine-4-carboxamide] the same measures were 10900 nM, more than 10000 nM and 74 nM.
With `CN1CCN(c2ccc(NC(=O)Nc3ccc4c(c3)C(=O)/C(=C/c3cn(C)c5nccc(N6CC7CCC(C6)O7)c35)O4)cn2)CC1` [Compound 231, 1-[(2Z)-2-{[1-methyl-4-(8-oxa-3-azabicyclo[3.2.1]oct-3-yl)-1H-pyrrolo[2,3-b]pyridin-3-yl]methylidene}-3-oxo-2,3-dihydro-1-benzofuran-5-yl]-3-[6-(4-methylpiperazin-1-yl)pyridin-3-yl]urea], the IC50 was 703 nM in test [1], more than 10000 nM in test [2] and 31.5 nM in test [3] (setting [4]).
For `Cn1cncc1CNC(=O)Nc1ccc2c(c1)C(=O)/C(=C/c1cn(C)c3nccc(N4CC5CCC(C4)O5)c13)O2` [Compound 232, 1-[(1-methyl-1H-imidazol-5-yl)methyl]-3-[(2Z)-2-{[1-methyl-4-(8-oxa-3-azabicyclo[3.2.1]oct-3-yl)-1H-pyrrolo[2,3-b]pyridin-3-yl]methylidene}-3-oxo-2,3-dihydro-1-benzofuran-5-yl]urea] the same measures were 1140 nM, more than 10000 nM and 160 nM.
For `Cn1cc(/C=C2\Oc3ccc(NC(=O)Nc4cccnc4)cc3C2=O)c2c(N3CCC(C(=O)N4CC5CCC4CO5)CC3)ccnc21` (stereo not drawn) [Compound 233, 1-[(2Z)-2-({1-methyl-4-[4-(2-oxa-5-azabicyclo[2.2.2]oct-5-ylcarbonyl)piperidin-1-yl]-1H-pyrrolo[2,3-b]pyridin-3-yl}methylidene)-3-oxo-2,3-dihydro-1-benzofuran-5-yl]-3-pyridin-3-ylurea] the same measures were 196 nM, 1730 nM and 38 nM.
For `Cn1cc(/C=C2\Oc3ccc(NC(=O)Nc4cccnc4)cc3C2=O)c2c(C(=O)N3CCCCC3)ccnc21` [Compound 234, 1-[(2Z)-2-{[1-methyl-4-(piperidin-1-ylcarbonyl)-1H-pyrrolo[2,3-b]pyridin-3-yl]methylidene}-3-oxo-2,3-dihydro-1-benzofuran-5-yl]-3-pyridin-3-ylurea], in that order: 253 nM, 2500 nM and more than 4000 nM.
For `CC(C)NC(=O)Nc1ccc2c(c1)C(=O)/C(=C/c1cn(C)c3nccc(N4CC5CCC(C4)O5)c13)O2` [Compound 235, 1-(1-methylethyl)-3-[(2Z)-2-{[1-methyl-4-(8-oxa-3-azabicyclo[3.2.1]oct-3-yl)-1H-pyrrolo[2,3-b]pyridin-3-yl]methylidene}-3-oxo-2,3-dihydro-1-benzofuran-5-yl]urea], the IC50 is 845 nM in test [1], 2560 nM in test [2] and 72 nM in test [3] (setting [4]).
Regarding `C[C@H]1COCCN1c1ccnc2c1c(/C=C1\Oc3ccc(NC(=O)Nc4cccnc4)cc3C1=O)cn2C` [Compound 238, 1-[(2Z)-2-({1-methyl-4-[(3S)-3-methylmorpholin-4-yl]-1H-pyrrolo[2,3-b]pyridin-3-yl}methylidene)-3-oxo-2,3-dihydro-1-benzofuran-5-yl]-3-pyridin-3-ylurea], the IC50 in test [1] amounted to 649 nM; in test [2], 3640 nM; in test [3] (setting [4]), 130 nM.
For `C[C@@H]1CN(C2CCN(c3ccnc4c3c(/C=C3\Oc5ccc(NC(=O)Nc6cccnc6)cc5C3=O)cn4C)CC2)C[C@H](C)O1` [Compound 239, 1-{(2Z)-2-[(4-{4-[(2R,6S)-2,6-dimethylmorpholin-4-yl]piperidin-1-yl}-1-methyl-1H-pyrrolo[2,3-b]pyridin-3-yl)methylidene]-3-oxo-2,3-dihydro-1-benzofuran-5-yl}-3-pyridin-3-ylurea], in that order: 326 nM, 748 nM and 64 nM.
In the case of `CCN(CCO)C(=O)c1ccc(-c2ccnc3c2c(/C=C2\Oc4cccc(O)c4C2=O)cn3C)cc1` [Compound 243, N-ethyl-N-(2-hydroxyethyl)-4-{3-[(Z)-(4-hydroxy-3-oxo-1-benzofuran-2(3H)-ylidene)methyl]-1-methyl-1H-pyrrolo[2,3-b]pyridin-4-yl}benzamide], the IC50 in test [1] was determined as 167 nM; in test [2], 219 nM; in test [3] (setting [4]), 90.5 nM.
For `CCN(CC)C(=O)C1CCN(c2ccnc3c2c(/C=C2\Oc4ccc(NC(=O)Nc5cccnc5)cc4C2=O)cn3C)CC1` [Compound 244, N,N-diethyl-1-{1-methyl-3-[(Z)-{3-oxo-5-[(pyridin-3-ylcarbamoyl)amino]-1-benzofuran-2(3H)-ylidene}methyl]-1H-pyrrolo[2,3-b]pyridin-4-yl}piperidine-4-carboxamide], in that order: 308 nM, 3380 nM and 115 nM.
For `Cn1cc(/C=C2\Oc3cccc(O)c3C2=O)c2c(-c3ccc(C(=O)N4CCC(O)C4)cc3)ccnc21` (stereo not drawn) [Compound 245, (2Z)-4-hydroxy-2-[(4-{4-[(3-hydroxypyrrolidin-1-yl)carbonyl]phenyl}-1-methyl-1H-pyrrolo[2,3-b]pyridin-3-yl)methylene]-1-benzofuran-3(2H)-one] the same measures were 29 nM, 54 nM and 1.4 nM.
For `COCCN(C)C(=O)c1ccc(-c2ccnc3c2c(/C=C2\Oc4ccc(NC(=O)Nc5cccnc5)cc4C2=O)cn3C)cc1` [Compound 247, N-(2-methoxyethyl)-N-methyl-4-{1-methyl-3-[(Z)-{3-oxo-5-[(pyridin-3-ylcarbamoyl)amino]-1-benzofuran-2(3H)-ylidene}methyl]-1H-pyrrolo[2,3-b]pyridin-4-yl}benzamide], in that order: 3300 nM, 484 nM and 30 nM.
As to `CONC(=O)c1ccc(-c2ccnc3c2c(/C=C2\Oc4ccc(NC(=O)Nc5cccnc5)cc4C2=O)cn3C)cc1` [Compound 248, N-methoxy-4-{1-methyl-3-[(Z)-{3-oxo-5-[(pyridin-3-ylcarbamoyl)amino]-1-benzofuran-2(3H)-ylidene}methyl]-1H-pyrrolo[2,3-b]pyridin-4-yl}benzamide], the half-maximal inhibitory concentration (IC50) in test [1] is 976 nM; in test [2], 479 nM; in test [3] (setting [4]), 1650 nM.

A word on the IC50: it is the concentration needed to halve the response being measured.
